Among the data in PubChem BioAssay (NCI) are TGI values, retold here.

What all share (experiment): NCI anticancer screen, dose series, 48 h
The test system of assay [1] is UACC-257 melanoma.
Assay [2] deals with SR leukemia.
The test system of assay [3] is SW-620 colon.
For assay [4], the system named is CCRF-CEM leukemia.
Assay [5] deals with EKVX NSCLC.
The test system of assay [6] is LOX IMVI melanoma.
Assay [7] has as its system CAKI-1 renal.
The test system of assay [8] is PC-3 prostate.
In assay [9] the test system is BT-549 breast.
The subject of assay [10] is MCF7 breast.
The subject of assay [11] is NCI-H522 lung.
In assay [12] the test system is T-47D breast.
Assay [13] deals with SNB-19 CNS.
Assay [14] relates to SN12C renal.
Assay [15] has as its system A498 renal.
Assay [16] has as its system MDA-N.
Assay [17] concerns HS 578T breast.
The test system of assay [18] is K-562 leukemia.

The structures appear in SMILES notation.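 Grown in 96-well plates, cells were treated for 48 hours with each compound at five concentrations. Insufficient inhibition: endpoint recorded as highest concentration tested. TGI: concentration producing complete growth inhibition.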

Regarding `O=C1c2cc(-c3ccccc3)cnc2S(=O)(=O)N1c1ccc(Br)cc1`, the TGI in assay [1] was greater than 100 µM; in [2], 35 µM; in [3], greater than 100 µM; in assay [4], greater than 100 µM; in [5], greater than 100 µM; in assay [6], greater than 100 µM. Also, the TGI is greater than 100 µM in [7]; greater than 100 µM in [8]; greater than 100 µM in [9]; greater than 100 µM in [10]; 54.6 µM in assay [11]; greater than 100 µM in [12]. For the same molecule, the TGI is 35 µM in assay [13]; greater than 100 µM in assay [14]; greater than 100 µM in [15]; greater than 100 µM in assay [16]; 70.6 µM in assay [17].
With `CC(NC(=O)Cc1ccccc1)NC(=O)C(C)C(=O)Nc1ccccc1` (stereo unspecified), the TGI in assay [1], in assay [2], in assay [3], in assay [5], in [7] and in assay [8] was greater than 100 µM in each case. The TGI is greater than 100 µM in assay [9]; greater than 100 µM in assay [10]; greater than 100 µM in assay [11]; greater than 100 µM in [12]; 75.8 µM in assay [13]; greater than 100 µM in [14]. In addition, the TGI in [16] is greater than 100 µM; in assay [18] it was greater than 100 µM; in assay [17] it was 88 µM.
Take `COc1cc(OC)cc(C(=O)CC(=O)c2cc(OC)cc(OC)c2)c1`: the TGI in assay [1], in assay [2], in assay [3], in [4], in assay [5] and in assay [8] was greater than 100 µM in each case. The TGI in [9], in assay [10], in assay [12], in assay [13], in [14] and in assay [15] was greater than 100 µM each time. The TGI in [16], in assay [18] and in [17] was greater than 100 µM in each case.
As to `COC(=O)C(Cc1ccc2c(c1)CCC2)Cc1ccc2c(c1)CCC2`, the TGI in [1] was greater than 100 µM; in assay [2], greater than 100 µM; in assay [3], greater than 100 µM; in [4], greater than 100 µM; in assay [5] it was greater than 100 µM; in [6], 60.4 µM. In addition, the TGI in [8], in assay [9], in assay [10], in [11], in assay [12] and in [13] was greater than 100 µM in each case. The TGI in assay [14], in assay [15], in assay [16], in assay [18] and in assay [17] was greater than 100 µM throughout.
For the molecule `CC(=NNC(=S)Nc1ccccc1)c1cccc(C(C)=NNC(=S)Nc2ccccc2)n1`, the TGI in assay [1] is greater than 100 µM; in [3], greater than 100 µM; in [4] it was greater than 100 µM; in assay [5], greater than 100 µM; in assay [6], greater than 100 µM; in assay [7] it was greater than 22.9 µM. Moreover, the TGI in assay [8] was greater than 100 µM; in assay [9], greater than 100 µM; in [10], greater than 30.7 µM; in assay [11], greater than 100 µM; in assay [12] it was greater than 100 µM; in [13] it was greater than 100 µM. Further, the TGI is greater than 100 µM in assay [14]; greater than 80.8 µM in [15]; greater than 100 µM in assay [16]; greater than 53.5 µM in assay [18]; greater than 100 µM in [17].
In the case of `C/C(C[n+]1ccccc1)=N\N=C(N)N`, the TGI in assay [1], in [3], in assay [4], in [5], in [6] and in assay [7] was greater than 100 µM each time. Further, the TGI in [8], in assay [9], in [10], in [11], in assay [12] and in assay [13] was greater than 100 µM in each case. Further, the TGI in assay [14], in assay [15], in assay [16], in assay [18] and in assay [17] was greater than 100 µM throughout.
In the case of `CC1=CCC([C@@](C)(O)CCCC(C)(C)N=C=S)CC1` (stereo partly specified), the TGI came out at 35 µM in assay [1]; 41.7 µM in assay [2]; 32.6 µM in assay [3]; 48.9 µM in assay [4]; 32.5 µM in assay [5]; 29.6 µM in [6]. Besides, the TGI in assay [8] was found to be 33 µM; in assay [9], 33.5 µM; in assay [10], 34.6 µM; in assay [11], 33.8 µM; in assay [12], 44.2 µM; in assay [13] it was 31.1 µM. Further, the TGI was found to be 35.6 µM in [14]; 28.7 µM in [15]; 32.4 µM in [16]; 42.4 µM in assay [18]; 55.4 µM in assay [17].
On to `O=C1NC(N2CCOCC2)=N/C1=C\c1ccco1`, for which the TGI in assay [1], in assay [2], in [3], in [4], in [5] and in [6] was greater than 100 µM in each case. The TGI in [7], in [8], in assay [9], in assay [10], in assay [11] and in [12] was greater than 100 µM in each case. Also, the TGI in assay [13], in [14], in assay [16] and in assay [17] was greater than 100 µM throughout.
Take `CCCCCC#CCOC(=O)C(=[N+]=[N-])P(=O)(c1ccccc1)c1ccccc1`: the TGI in assay [1], in [2], in assay [3], in assay [5], in assay [6] and in assay [8] was greater than 10 µM in each case. Also, the TGI in assay [9], in [10], in assay [12], in [13], in assay [14] and in [15] was greater than 10 µM throughout. The TGI in [16], in [18] and in assay [17] was greater than 10 µM throughout.
